Experimental data from US5443986A, “Enzymatic analysis using substrates that yield fluorescent precipitates” (Molecular Probes, Inc., priority 1993, dated 1995).

How the values were obtained:
[1] = biological target: T1, β-galactosidase (Escherichia coli, UniProt P00722); assay: Labeling of lacZ positive fibroblast cells with a β-galactosidase substrate; format: cell-based
T1 construct: host or cells: CRE BAG 2 cells (NIH/3T3 cells transformed with a retrovirus containing lacZ)
Experimental: (§1) 1.1 Cell Lines: NIH/3T3 cells (lacZ negative) and CRE BAG 2 cells (3T3 cells transformed with a retrovirus containing the lacZ gene) are employed for cellular assays. Both cell lines can be obtained from American Type Culture Collection Co., Rockville, Md. The cells are grown in a humidified atmosphere of 5% CO2 in Dulbecco's modified Eagle's medium supplemented with 10% calf serum, 50 μg/mL gentamicin, 300 μg/mL L-glutamine and 10 mM HEPES pH 7.4.
1.2 Stock Solution of the Labeling Reagent: The β-galactosidase substrate 1h is dissolved in DMSO to get a 10 mM stock solution.
(§2) 1.3 Working Medium: 100 μL of the dye stock solution is added to 10 mL of fresh culture medium to prepare a "working medium" containing 100 μM of the substrate 1h. This medium is then filter-sterilized by passing through an Acrodisc™ filter (0.45μ pore size).
1.4 Staining and Examination of Cells: Cells grown on coverslips are transferred to the working medium and incubated at 37° C. under normal culture conditions. Cells are examined at the desired time for their fluorescence under a Zeiss microscope equipped with a Hoechst filter set (typically excitation at about 360 nm and emission past 480 nm). […] After 6 hours, the fluorescence intensity of stained CRE BAG 2 cells reaches its highest level.

[2] = system: NIH/3T3 cells and CRE BAG 2 cells; assay: Cytotoxicity and cellular retention in fibroblast cells; format: cell-based
Experimental: as §1, §2

[3] = system: β-galactosidase; assay: Labeling of lacZ positive yeast cells; format: cell-based, Yeast strain EG 123; conditions: 200 μM staining solution mixed with equal volume of cells, after 300 μM chloroquine
Experimental: 2.1 Yeast Strain: Yeast strain EG 123 is transformed with plasmid pLGΔ-312S, which carries the yeast CYC1 promotor region and initiation codon fused in frame with the lacZ gene. The cells are grown in a synthetic medium selecting for plasmid maintenance to a density of about 10^7 cells per mL. Cells are collected by centrifugation and resuspended in Z buffer to obtain a cell suspension. Z buffer contains 0.2% β-mercaptoethanol which improves the permeability of both the yeast cell wall and the plasma membrane. Nontransformed yeast cells are used as the control.
2.2 Staining Solution: The galactosidase substrate (1h) is first dissolved in DMSO to get 10 mM stock solution. This solution is diluted 1:50 with distilled water to obtain a 200 μM staining solution.
2.3 Staining and Examination of Cells: To inhibit endogenous vacuolar galactosidase activity, yeast cells are first preincubated with 300 μM chloroquine for 20 minutes at room temperature, then mixed with an equal volume of the substrate-containing staining solution. Most of the lacZ positive cells become fluorescent within 15 minutes. A crystalline precipitate can be observed in the cells, while the lacZ negative cells remain unstained for at least 2 hours.

[4] = system: epidermal growth factor (EGF) receptors; assay: Detection of a growth factor receptor in A431 cells; format: cell-based, human; conditions: fluorescence microscope; substrate 0.1 mM 15 minutes, or 50 ng/mL direct conjugate
Experimental: 1 ). Cells. Dish-cultured A431 cells (American Type Culture Collection, Rockville, Md.) are digested with trypsin and transferred to glass cover-slips. The cells are subcultured and stabilized for 24 to 48 hours before use.
2). Staining. The slips are transferred into a staining dish, washed with PBS, rinsed in a 0.5% formaldehyde PBS solution for 15 minutes at room temperature, washed with PBS, then incubated in 50 ng/mL biotinylated epidermal growth factor (biotin-EGF; Molecular Probes, Inc., Eugene, Oreg.) in PBS solution for 30 minutes at room temperature. The slips are washed with PBS buffer, then incubated with 1 μg/mL streptavidin alkaline phosphatase (Molecular Probes, Inc.) in a reaction buffer (0.1M TRIS pH 7.8 containing 0.15M NaCl, 50 mM MgCl2 and 0.1 mM ZnCl2) for 30 minutes at room temperature. The slips are washed with the reaction buffer, then incubated with 0.1 mM of a precipitating alkaline phosphatase substrate in the reaction buffer for 15 minutes at room temperature. The substrate solution is filtered through a 0.2 μM filter (Millipore, Bedford, Mass.) before use.
3). Detection. The slips are washed with PBS then examined under a Zeiss fluorescence microscope equipped with suitable filters (typically excitation at about 360 nm and emission past 480 nm). […] Alternatively the fluorescent labeled cells can be detected and the intensity quantitated by flow cytometry.

T1 sequence (P00722 whole entry): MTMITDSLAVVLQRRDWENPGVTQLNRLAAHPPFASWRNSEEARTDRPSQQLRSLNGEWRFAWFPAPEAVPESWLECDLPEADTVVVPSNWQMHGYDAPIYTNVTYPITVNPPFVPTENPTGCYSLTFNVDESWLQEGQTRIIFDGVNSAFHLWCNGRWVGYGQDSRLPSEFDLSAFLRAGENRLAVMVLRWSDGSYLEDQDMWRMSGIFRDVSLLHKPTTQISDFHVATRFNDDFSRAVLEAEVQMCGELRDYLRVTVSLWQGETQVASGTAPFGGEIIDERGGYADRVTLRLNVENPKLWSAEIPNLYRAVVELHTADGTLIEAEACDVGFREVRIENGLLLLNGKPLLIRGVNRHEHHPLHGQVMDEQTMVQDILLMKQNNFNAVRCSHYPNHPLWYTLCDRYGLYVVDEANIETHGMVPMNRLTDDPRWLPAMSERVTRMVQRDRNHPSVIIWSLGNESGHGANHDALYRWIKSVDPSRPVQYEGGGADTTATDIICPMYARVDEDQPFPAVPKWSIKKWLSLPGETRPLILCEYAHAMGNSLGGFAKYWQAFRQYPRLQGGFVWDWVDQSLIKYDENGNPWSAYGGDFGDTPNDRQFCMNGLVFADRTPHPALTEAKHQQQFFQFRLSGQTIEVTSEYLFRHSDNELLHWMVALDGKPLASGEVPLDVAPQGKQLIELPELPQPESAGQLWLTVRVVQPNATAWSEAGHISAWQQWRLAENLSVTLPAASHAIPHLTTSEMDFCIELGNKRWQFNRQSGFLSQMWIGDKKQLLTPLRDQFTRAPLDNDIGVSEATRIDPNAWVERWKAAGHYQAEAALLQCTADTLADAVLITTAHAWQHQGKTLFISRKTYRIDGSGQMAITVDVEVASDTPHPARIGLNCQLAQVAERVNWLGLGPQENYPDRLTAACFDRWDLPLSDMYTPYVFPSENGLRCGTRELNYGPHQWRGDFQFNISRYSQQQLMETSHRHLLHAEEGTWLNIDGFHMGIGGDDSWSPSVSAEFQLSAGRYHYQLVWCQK

| Compound | time at which fluorescence intensity of stained CRE BAG 2 cells reaches its highest level ([1]; 100 μM working medium) | fluorescent staining of 3T3 cells (lacZ negative) ([1]; 100 μM, 60 minutes, 37° C.) | fluorescent staining of lacZ positive CRE BAG 2 cells ([1]; 100 μM, 60 minutes, 37° C.) | cytotoxicity [2] | cell morphology and population doubling time ([2]; 100 μM working medium, 24 hours) | time for which lacZ negative yeast cells remain unstained [3] | time within which most lacZ positive yeast cells become fluorescent [3] | fluorescence of stained fixed A431 cells [4] |
| --- | --- | --- | --- | --- | --- | --- | --- | --- |
| O=c1[nH]c(-c2ccccc2O[C@@H]2O[C@H](CO)[C@H](O)[C@H](O)[C@H]2O)nc2ccccc12 [1h] | 6 h | not in the 3T3 cells | fluorescent spots can be observed in the cytoplasmic area | no cytotoxicity | look morphologically normal and have the same population doubling time as the control | at least 2 hours | ≤ 15 min |  |
| fluorescein EGF: direct fluorescent conjugate of epidermal growth factor (NSDSECPLSHDGYCLHDGVCMYIEALDKYACNCVVGYIGERCQYRDLKWWELR; Epidermal growth factor fluorescein label; UniProt P01133 971-1023, looked up) |  |  |  |  |  |  |  | extremely low visibility and very low photostability |
